Measured values from patent publication US8309685B2 (Celgene Avilomics Research, Inc., priority 2007, dated 2012).
Where two headings read alike, the source gives them in different places.

Tests used:
[1] = molecular target: T1, D168A mutant of the HCV NS3/4A 1b protease enzyme (Hepatitis C virus genotype 1b, UniProt P26663, D1194A); assay: HCV Protease FRET Assay (IC50_APP), D168A mutant; type: biochemical
T1 construct: 10× stocks of NS3/4A protease enzyme from Bioenza (Mountain View, Calif.); purchased Bioenza (Mountain View, Calif.)

[2] = molecular target: T2, R155K mutant of the HCV NS3/4A 1b protease enzyme (Hepatitis C virus genotype 1b, UniProt P26663, R1181K); assay: HCV Protease FRET Assay (IC50_APP), R155K mutant; type: biochemical
T2 construct: 10× stocks of NS3/4A protease enzyme from Bioenza (Mountain View, Calif.); purchased Bioenza (Mountain View, Calif.)
Experimental: HCV Protease FRET Assay for WT and Mutated NS3/4A 1b Enzymes (IC50—APP).
The following protocol was used to generate “apparent” IC50 (IC50—APP) values as depicted in Table 6, below. […] 5 μL of each enzyme were added to Corning (#3575) 384-well, black, microtiter plates (Corning, N.Y.) after spotting a 0.5 μL volume of 50% DMSO and serially diluted compounds prepared in 50% DMSO. Protease reactions were immediately started after enzyme addition with the addition of 45 μL of the FRET substrate and monitored for 60-90 minutes at λex485/λem520 in a Synergy^4 plate reader from BioTek (Winooski, Vt.). At the conclusion of each assay, progress curves from each well were examined for linear reaction kinetics and fit statistics (R^2, 95% confidence intervals, absolute sum of squares).
The compound numbers correspond to the compound numbers in Table 3. […] ;

[3] = molecular target: T3, wild type HCV NS3/4A 1b protease enzyme (Hepatitis C virus genotype 1b, UniProt P26663); assay: HCV Protease FRET Assay (IC50_APP), wild type; type: biochemical
T3 construct: 10× stocks of NS3/4A protease enzyme from Bioenza (Mountain View, Calif.); purchased Bioenza (Mountain View, Calif.)

[4] = tested on: HCV RNA replicon in cell line ET (luc-ubi-neo/ET), human Huh7 hepatoma; assay: Luciferase Assay (Example 35), replicon-derived luciferase activity; type: cell-based; conditions: Hepatitis C virus, Huh-7, assay described in Example 35
Experimental: The compounds were assayed to evaluate the antiviral activity and cytotoxicity of compounds using replicon-derived luciferase activity. This assay used the cell line ET (luc-ubi-neo/ET), which is a human Huh7 hepatoma cell line that contains an HCV RNA replicon with a stable luciferase (Luc) reporter and cell culture-adaptive mutations. The ET cell line was grown in a 5% CO2 incubator at 37° C. in Dulbecco's modified essential media (DMEM) supplemented with 2 mM L-glutamine, nonessential amino acids, 100 U of penicillin/ml, 100 μg of streptomycin/mL, and 10% fetal bovine serum. G418 (Geneticin; Invitrogen) was added at a final concentration of 400 ug//mL.
All cell culture reagents were obtained from Invitrogen (Carlsbad). Cells were trypsinized (1% trypsin:EDTA) and plated out at 5×10^3 cells/well in white 96-well assay plates (Costar) dedicated to cell number (cytotoxicity) or antiviral activity assessments. Test compounds were added at six 3-fold concentrations each and the assay was run in DMEM, 5% FBS, 1% pen-strep, 1% glutamine, 1% non essential amino acid. Human interferon alpha-2b (PBL Biolabs, New Brunswick, N.J.) was included in each run as a positive control compound. Cells were processed 72 hr post test compound addition when the cells were still subconfluent. Antiviral activity was measured by analyzing replicon-derived luciferase activity using the Steady-Glo Luciferase Assay System (Promega, Madison, Wis.) according to manufacturer's instruction. The number of cells in each well was determined by Cell Titer Blue Assay (Promega). Compound profile was derived by calculating applicable EC50 (effective concentration inhibiting virus replication by 50%), EC90 (effective concentration inhibiting virus replication by 90%), IC50 (concentration decreasing cell viability by 50%) and SI50 (selective index: […]) values.

[5] = apparent IC50, D168A mutant; read-out: IC50_APP, HCV D168A
[6] = apparent IC50, R155K mutant; read-out: IC50_APP, HCV R155K
[7] = read-out: IC50_APP, WT, apparent IC50, wild type NS3/4A 1b

| Structure (SMILES) | IC50 [1, 5] [nM] | IC50 [2, 6] [nM] | IC50 [3, 7] [nM] | EC90 [4] [nM] | EC50 [4] [nM] | IC50 ([1]; read-out: IC50_APP, HCV D168A; apparent IC50, D168A mutant) [nM] | IC50 ([2]; read-out: IC50_APP, HCV R155K; apparent IC50, R155K mutant) [nM] | IC50 [3] [nM] |
| --- | --- | --- | --- | --- | --- | --- | --- | --- |
| C=C[C@@H]1C[C@]1(NC(=O)[C@@H]1C[C@@H](Oc2nccc3cc(OC)ccc23)CN1C(=O)[C@H](CCC(=O)/C(C)=C/C)NC(=O)OC(C)(C)C)C(=O)NS(=O)(=O)C1CC1 [Compound I-95, {1-[2-(1-Cyclopropanesulfonylaminocarbonyl-2-vinyl-cyclopropylcarbamoyl)-4-(6-methoxy-isoquinolin-1-yloxy)-pyrrolidine-1-carbonyl]-5-methyl-4-oxo-hept-5-enyl}-carbamic acid tert-butyl ester] | 100 to 1000 | 10 to 100 | < 10 | 100 to 1000 | 10 to 100 | – | – | – |
| C=CC(=O)NC[C@H](NC(=O)OC(C)(C)C)C(=O)N1C[C@H](Oc2nccc3ccccc23)C[C@H]1C(=O)N[C@]1(C(=O)NS(=O)(=O)C2CC2)C[C@H]1C=C [Compound I-97, {1-(Acryloylamino-methyl)-2-[2-(1-cyclopropanesulfonylaminocarbonyl-2-vinyl-cyclopropylcarbamoyl)-4-(isoquinolin-1-yloxy)-pyrrolidin-1-yl]-2-oxo-ethyl}-carbamic acid tert-butyl ester] | – | – | < 10 | 100 to 1000 | 100 to 1000 | 100 to 1000 | 100 to 1000 | – |
| C=CC(=O)N(C)C[C@H](NC(=O)OC(C)(C)C)C(=O)N1C[C@H](Oc2nccc3ccccc23)C[C@H]1C(=O)N[C@]1(C(=O)NS(=O)(=O)C2CC2)C[C@H]1C=C [Compound I-98, {1-[(Acryloyl-methyl-amino)-methyl]-2-[2-(1-cyclopropanesulfonylaminocarbonyl-2-vinyl-cyclopropylcarbamoyl)-4-(isoquinolin-1-yloxy)-pyrrolidin-1-yl]-2-oxo-ethyl}-carbamic acid tert-butyl ester] | 100 to 1000 | 100 to 1000 | 10 to 100 | 100 to 1000 | 10 to 100 | – | – | – |
| C=CCN(C[C@H](NC(=O)OC(C)(C)C)C(=O)N1C[C@H](Oc2nccc3cc(OC)ccc23)C[C@H]1C(=O)N[C@]1(C(=O)NS(=O)(=O)C2CC2)C[C@H]1C=C)C(=O)C=C [Compound I-99, {1-[(Acryloyl-allyl-amino)-methyl]-2-[2-(1-cyclopropanesulfonylaminocarbonyl-2-vinyl-cyclopropylcarbamoyl)-4-(6-methoxy-isoquinolin-1-yloxy)-pyrrolidin-1-yl]-2-oxo-ethyl}-carbamic acid tert-butyl ester] | 1000 to 10000 | 100 to 1000 | < 10 | – | 10 to 100 | – | – | – |
| C=CC(=O)N[C@H](C)C(=O)N1C[C@H](Oc2nccc3cc(OC)ccc23)C[C@H]1C(=O)N[C@]1(C(=O)NS(=O)(=O)C2CC2)C[C@H]1C=C [Compound I-100] | 10 to 100 | < 10 | < 10 | – | 10 to 100 | – | – | – |
| C=CC(=O)N[C@@H](C(=O)N1C[C@H](Oc2nccc3cc(OC)ccc23)C[C@H]1C(=O)N[C@]1(C(=O)NS(=O)(=O)C2CC2)C[C@H]1C=C)C(C)C [Compound I-101] | 100 to 1000 | 10 to 100 | < 10 | – | 10 to 100 | – | – | – |
| C=C[C@@H]1C[C@]1(NC(=O)[C@@H]1C[C@@H]2CN1C(=O)[C@H](CCC(=O)C=C(C)C)NC(=O)OCCC/C=C/c1ccc3ccnc(c3c1)O2)C(=O)NS(=O)(=O)C1CC1 [Compound I-102] | 1000 to 10000 | 10 to 100 | – | 10 to 100 | < 10 | – | – | < 10 |
| C=C[C@@H]1C[C@]1(NC(=O)[C@@H]1C[C@@H](Oc2nccc3cc(OC)ccc23)CN1C(=O)[C@H](CC(=O)C=C(C)C)NC(=O)OC(C)(C)C)C(=O)NS(=O)(=O)C1CC1 [Compound I-129] | 100 to 1000 | 10 to 100 | < 10 | – | < 10 | – | – | – |
| C=CC(=O)N[C@H](C(=O)N1C[C@H](Oc2nccc3cc(OC)ccc23)C[C@H]1C(=O)N[C@]1(C(=O)NS(=O)(=O)C2CC2)C[C@H]1C=C)C(C)(C)O [Compound I-131] | 10 to 100 | 10 to 100 | < 10 | – | 100 to 1000 | – | – | – |
| C=C[C@@H]1C[C@]1(NC(=O)[C@@H]1C[C@@H](Oc2nccc3cc(OC)ccc23)CN1C(=O)[C@H](CC(=O)C(=C)C)NC(=O)OC(C)(C)C)C(=O)NS(=O)(=O)C1CC1 [Compound I-132] | < 10 | < 10 | < 10 | – | 100 to 1000 | – | – | – |
| C=C[C@@H]1C[C@]1(NC(=O)[C@@H]1C[C@@H](Oc2nccc3cc(OC)ccc23)CN1C(=O)[C@H](CCC(=O)C#CC(C)(C)C)NC(=O)OC(C)(C)C)C(=O)NS(=O)(=O)C1CC1 [Compound I-135] | < 10 | < 10 | < 10 | – | 10 to 100 | – | – | – |
| C=C[C@@H]1C[C@]1(NC(=O)[C@@H]1C[C@@H](Oc2nccc3cc(OC)ccc23)CN1C(=O)[C@H](CCC(=O)/C=C\C(C)(C)C)NC(=O)OC(C)(C)C)C(=O)NS(=O)(=O)C1CC1 [Compound I-136] | 100 to 1000 | 100 to 1000 | < 10 | – | < 10 | – | – | – |
| C=C[C@@H]1C[C@]1(NC(=O)[C@@H]1C[C@@H](Oc2nccc3cc(OC)ccc23)CN1C(=O)[C@H](CCC(=O)C#Cc1ccccc1)NC(=O)OC(C)(C)C)C(=O)NS(=O)(=O)C1CC1 [Compound I-138] | 10 to 100 | < 10 | < 10 | – | 100 to 1000 | – | – | – |
| C=C[C@@H]1C[C@]1(NC(=O)[C@@H]1C[C@@H](Oc2nccc3cc(OC)ccc23)CN1C(=O)[C@H](CCC(=O)/C=C/C)NC(=O)OC(C)(C)C)C(=O)NS(=O)(=O)C1CC1 [Compound I-139] | < 10 | < 10 | < 10 | – | 10 to 100 | – | – | – |
| C=C(C)C(=O)C[C@H](NC(=O)OC(C)(C)C)C(=O)N1C[C@H](Oc2nccc3cc(OC)ccc23)C[C@H]1C(=O)N[C@]1(C(=O)NS(=O)(=O)C2CC2)C[C@H]1CC [Compound I-140] | 10 to 100 | < 10 | < 10 | – | 100 to 1000 | – | – | – |
| C=C[C@@H]1C[C@]1(NC(=O)[C@@H]1C[C@@H](Oc2nccc3cc(OC)ccc23)CN1C(=O)[C@H](CCC(=O)/C=C/C1CCCC1)NC(=O)OC(C)(C)C)C(=O)NS(=O)(=O)C1CC1 [Compound I-141, tert-butyl-(S,E)-7-cyclopentyl-1-((2S,4R)-2-((1R,2S)-1-(cyclopropylsulfonylcarbamoyl)-2-vinylcyclopropylcarbamoyl)-4-(6-methoxyisoquinolin-1-yloxy)pyrrolidin-1-yl)-1,5-dioxohept-6-en-2-ylcarbamate] | 100 to 1000 | 10 to 100 | – | – | < 10 | – | – | < 10 |
| C=C[C@@H]1C[C@]1(NC(=O)[C@@H]1C[C@@H](Oc2nccc3cc(OC)ccc23)CN1C(=O)[C@@H](C)NC(=O)CC)C(=O)NS(=O)(=O)C1CC1 [I^R-100, (2S,4R)—N-((1R,2S)-1-(cyclopropylsulfonylcarbamoyl)-2-vinylcyclopropyl)-4-(6-methoxyisoquinolin-1-yloxy)-1-((R)-2-propionamidopropanoyl)pyrrolidine-2-carboxamide] | 1000 to 10000 | 1000 to 10000 | – | – | 1000 to 10000 | – | – | 100 to 1000 |
